Experimental data: paper PMC9090415, “Discovery of small molecule inhibitors of Plasmodium falciparum apicoplast DNA polymerase” (Journal of Enzyme Inhibition and Medicinal Chemistry, 2022)

Target: P. falciparum apicoplast DNA polymerase (Pf-apPOL) (Plasmodium falciparum, UniProt Q8ILY1)
Assay: Fluorescence-based high-throughput DNA polymerase assay (molecular beacon), primary screen and dose-response;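 as to % inhibition ApPOL 90': test concentration in µM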;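 as to % inhibition apPOL 180': test concentration in µM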
Format: biochemical
Settings: for IC50: supplemental file 2, sheet IC50 nontoxic compounds, Pf-apPOL; for DNA Pol: unit not given, 90 min, 10 µM
Outline: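 Single-point screening used 10 µM compound with 20 nM polymerase, 20 nM hairpin substrate and 6 µM dNTPs for 90 min at 25 °C. Confirmatory titrations (2.5–80 µM) followed fluorescence at three times, and IC50 was derived from a fit including a cooperativity term n.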

Chain of P. falciparum apicoplast DNA polymerase (Pf-apPOL) (Q8ILY1 entry or part of it): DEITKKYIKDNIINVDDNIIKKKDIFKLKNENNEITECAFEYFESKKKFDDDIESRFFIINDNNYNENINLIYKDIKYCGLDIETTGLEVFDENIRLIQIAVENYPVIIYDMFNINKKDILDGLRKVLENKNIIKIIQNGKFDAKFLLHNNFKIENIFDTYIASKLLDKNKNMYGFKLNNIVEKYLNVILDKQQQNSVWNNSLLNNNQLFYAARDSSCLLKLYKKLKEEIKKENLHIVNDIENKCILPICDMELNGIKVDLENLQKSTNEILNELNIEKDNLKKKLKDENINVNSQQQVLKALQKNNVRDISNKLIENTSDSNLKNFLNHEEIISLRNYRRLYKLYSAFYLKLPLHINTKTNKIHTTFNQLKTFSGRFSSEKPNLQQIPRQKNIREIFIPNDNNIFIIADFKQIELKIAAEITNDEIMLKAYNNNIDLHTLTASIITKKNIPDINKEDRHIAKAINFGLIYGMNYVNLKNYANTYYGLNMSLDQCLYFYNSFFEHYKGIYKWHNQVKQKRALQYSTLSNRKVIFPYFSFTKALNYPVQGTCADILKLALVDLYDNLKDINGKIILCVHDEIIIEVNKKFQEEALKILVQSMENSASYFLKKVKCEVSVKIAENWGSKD

## O=C(c1c[nH]c2ncccc12)N1CCCCCC1 [Molecule 51]
  IC50: 21.5 µM

## COc1cccc(Oc2c(C(F)(F)F)oc3cc(OC(=O)N(C)C)ccc3c2=O)c1 [Molecule 52]
  IC50: 40.6 µM

## Cc1ccc(C)n1-c1ccc(C(=O)NNC(=O)c2ccc3nccnc3c2)cc1 [Molecule 53]
  IC50: 20.4 µM

## Cc1ccc(-n2nnc(C(=O)O)c2-c2ccccn2)c(F)c1 [Molecule 54]
  IC50: 14.5 µM

## O=c1cc(CN2CCCCC2)c2cc3c(cc2o1)OCO3 [Molecule 56, O=c1cc(CN2CCCCC2)c2c(o1)cc1c(c2)OCO1]
'DNA Pol' of the 186 hits list (primary screen result)
  DNA Pol: 34
DRC-1, concentration 2.5
  % inhibition Apo pol 10': -1.492%
DRC-1, concentration 5
  % inhibition Apo pol 10': 3.303%
DRC-1, concentration 10
  % inhibition Apo pol 10': 19.9772%
DRC-1, concentration 20
  % inhibition Apo pol 10': 32.3483%
DRC-1, concentration 40
  % inhibition Apo pol 10': 45.3079%
DRC-1, concentration 80
  % inhibition Apo pol 10': 89.8826%
DRC-1, 90', concentration 2.5
  % inhibition Apol 90': 2.551%
DRC-1, 90', concentration 5
  % inhibition Apol 90': 7.455%
DRC-1, 90', concentration 10
  % inhibition Apol 90': 24.7772%
DRC-1, 90', concentration 20
  % inhibition Apol 90': 41.1965%
DRC-1, 90', concentration 40
  % inhibition Apol 90': 58.3854%
DRC-1, 90', concentration 80
  % inhibition Apol 90': 90.5438%
DRC-1, 180', concentration 2.5
  % inhibition apPOL 180': 3.723%
DRC-1, 180', concentration 5
  % inhibition apPOL 180': 9.055%
DRC-1, 180', concentration 10
  % inhibition apPOL 180': 32.8614%
DRC-1, 180', concentration 20
  % inhibition apPOL 180': 57.3951%
DRC-1, 180', concentration 40
  % inhibition apPOL 180': 81.7381%
DRC-1, 180', concentration 80
  % inhibition apPOL 180': 95.8992%
DRC-2, 5', concentration 10 (unit not given)
  % inhibition Apo pol 5': 21%
DRC-2, 40', concentration 2.5 (unit not given)
  % inhibition Apol 40': 8%
DRC-2, 40', concentration 5 (unit not given)
  % inhibition Apol 40': 4%
DRC-2, 40', concentration 20 (unit not given)
  % inhibition Apol 40': 39%
DRC-2, 40', concentration 80 (unit not given)
  % inhibition Apol 40': 68%
DRC-2, 90', concentration 20 (unit not given)
  % inhibition ApPOL 90': 39%
DRC-2, 90', concentration 80 (unit not given)
  % inhibition ApPOL 90': 68%
DRC-2, 180', concentration 10 (unit not given)
  % inhibition apPOL 180': 21%
DRC-2, 5', concentration 2.5
  % inhibition Apo pol 5': 5.61%
DRC-2, 5', concentration 5
  % inhibition Apo pol 5': 6%
DRC-2, 5', concentration 10
  % inhibition Apo pol 5': 21%
DRC-2, 5', concentration 20
  % inhibition Apo pol 5': 35%
DRC-2, 5', concentration 40
  % inhibition Apo pol 5': 50%
DRC-2, 5', concentration 80
  % inhibition Apo pol 5': 60%
DRC-2, 40', concentration 2.5
  % inhibition Apol 40': 8%
DRC-2, 40', concentration 5
  % inhibition Apol 40': 4%
DRC-2, 40', concentration 10
  % inhibition Apol 40': 26%
DRC-2, 40', concentration 20
  % inhibition Apol 40': 39%
DRC-2, 40', concentration 40
  % inhibition Apol 40': 54%
DRC-2, 40', concentration 80
  % inhibition Apol 40': 68%
DRC-2, 90', concentration 2.5
  % inhibition ApPOL 90': 8%
DRC-2, 90', concentration 2.5 (unit not given)
  % inhibition ApPOL 90': 8%
DRC-2, 90', concentration 5
  % inhibition ApPOL 90': -0.711%
DRC-2, 90', concentration 10
  % inhibition ApPOL 90': 27%
DRC-2, 90', concentration 20
  % inhibition ApPOL 90': 39%
DRC-2, 90', concentration 40
  % inhibition ApPOL 90': 53%
DRC-2, 90', concentration 80
  % inhibition ApPOL 90': 68%
DRC-2, 180', concentration 2.5
  % inhibition apPOL 180': 4%
DRC-2, 180', concentration 2.5 (unit not given)
  % inhibition apPOL 180': 4%
DRC-2, 180', concentration 5
  % inhibition apPOL 180': -66%
DRC-2, 180', concentration 10
  % inhibition apPOL 180': 21%
DRC-2, 180', concentration 20
  % inhibition apPOL 180': 32%
DRC-2, 180', concentration 40
  % inhibition apPOL 180': 45%
DRC-2, 180', concentration 80
  % inhibition apPOL 180': 64%
Primary screen value of the library well
  DNA Pol: 34

## O=c1cc(CN2CCCCC2)c2cc3c(cc2o1)OCO3 [Molecule 56]
  IC50: 38.1 µM

## Cc1ccc(N2CCC(NC(=O)Cc3cccs3)C2=O)cc1C (stereo not shown) [Molecule 57]
  IC50: 29 µM

## Cn1nc(-c2nc(-c3ccccc3)no2)c2c1CCN(C(=O)Cc1cccs1)C2 [Molecule 58]
  IC50: 18.5 µM
